Experimental data reported in patent US10501502B2, “Allophycocyanin alpha-subunit evolved labeling proteins (smURFPs)” (The Regents of the University of California, priority 2016, dated 2019).
“Also recorded” adds a separate entry of the source.

Legend:
[1] = FP purification and fluorescence characterization in vitro (spectra, extinction coefficient, quantum yield); assay type: physicochemical
Procedure: FP genes were expressed on a pBAD vector (Life Technologies) with a polyhistidine tag on the C terminus, cells were lysed with B-PER (Thermo Scientific), and purified using Ni-NTA (Qiagen) puri-fication. PCB (HO-1+PcyA) and BV (HO-1) incorporation in Escherichia coli was performed simultaneously during constitu-tively active FP expression. Extinction coefficient was determined by PCB or BV absorbance as described35,36 (Table 3, smURFP+BV and TDsmURFP+BV, and Table 2) or calculated for the apoproteins by determining the protein concentration by the BCA protein assay (Pierce), and a specific chromo-phore concentration was added (specified in the Purification of FP lacking chromophore and in vitro chromophore incorporation section) to get 1 and 2 chromophore species (Table 5, not including (Escherichia coli)). When FP chromophore (PCB or BV) was expressed in Escherichia coli, the PCB and BV Q band had absorbance that overlapped with detection of BCA or Bradford assay of 562 nm and 592 nm, respectively. We used the previously published protocols35,36, where there was no change of the BV absorbance at 390 nm when free in solution or attached to the FP. smURFP+BV denaturation with 1 M urea caused no change in the BV absorbance at 390 nm, but the Q band was reduced ˜20-fold. Therefore, the extinction coefficient of BV at 390 nm was used to calculate the concentration of holoprotein (FP+PCB or BV) concentration.
EX and EM spectra were obtained using SPEX Fluorolog fluorometer (Horiba). Absorbance spectra were obtained using UV-VIS Spectrophotometer Cary Eclipse (Varian) or UV-2700 (Shimadzu). Quantum yield was determined relative to Cy5. Incorporation rates of BV on 0.5 μM smURFP was performed by addition of smURFP to PBS alone or with 20% fetal bovine serum (FBS) and mixed by pipetting in a quartz cuvette. Chromophore was added last, mixed by pipetting, and fluorescence was recorded using SPEX Fluorolog fluorometer (Horiba). Photobleaching was characterized on bubbles of purified FP or Cy5 within mineral oil using light from a 150 W xenon arc lamp with 100% light through EX/EM=628(40)/680(30) nm for smURFP, TDsmURFP, and Cy5 or EX/EM=665 (45)/725 (50) nm for IFP 1.4 focused with a 40×, 1.2 numerical aperture C-Apochromat oil-immersion lens on a Zeiss Axiovert 200M inverted microscope. Photobleaching times were normalized to reflect an initial illumination intensity producing 1,000 photons per fluorescent molecule per second as previously described^37.
HO-1 was removed by digesting the pBAD vector (Life Technology) with MscI and PmeI (NEB). smURFP and TDsmURFP were expressed and purified as described above. No chromophore was present on smURFP and TDsmURFP (confirmed by UV, fluorescence imaging, and MS). For predominant fluorescent species+2 chromophores, a ten-fold excess of chromophore was added to smURFP and TDsmURFP. For predominant fluorescent species+1 chromophore, a quarter concentration of chromophore was added to smURFP and TDsmURFP. Chromophore was added in PBS+10% FBS at 37° C. overnight. smURFP+chromophore and TDsmURFP+chromophore were purified using NiNTA (Qiagen) to remove excess or noncovalently attached chromophore.

[2] = BV or BVMe2 concentration in plasma, in vitro; conditions: 10 μM, 37° C., up to 1,440 min
Procedure: Whole blood was collected via abdominal aorta and placed in tubes with lithium heparin (BD, No. 365971) on ice. Tubes were centrifuged to remove red blood cells, and plasma was stored on ice for 30 min. Clarified plasma was combined and aliquoted into 9×70 μl aliquots and placed on ice. The following nine experiments were performed: starting plasma (1) and plasma+10 μM BV (2-5) or BVMe2(6-9) at time 0 at 4° C. and 15, 60, and 1,440 min at 37° C. Reactions were stopped by freezing at −80° C. Plasma samples were thawed, diluted 4× with cold 50% ACN, 48% water (H2O), and 2% acetic acid, and centrifuged for 14 min at 4° C. Reverse-phase high performance liquid chromatography (HPLC) was performed on an Agilent 1100 Series HPLC on a Phenomenex Luna C18(2) reverse-phase column 100 Å, 250 cm×21.20 mm I.D. 10 μm reverse-phase column (00G-4253-P0 AX), with a 21 min, 10-90% H2O:ACN (0.05% trifluoroacetic acid, TFA) gradient and a flow rate of 1 ml/min into a diode array detector and MSD-Ion Trap (Agilent LC/MSD trap XCT).

HEK293A cells = test: Fluorescence imaging of FPs in HEK293A cells with chromophore addition or HO-1 expression; assay type: cell-based
Excerpt: smURFP codons were optimized for human cell expression, and the gene was created by GenScript. smURFP, TDsmURFP (created from mammalian-optimized smURFP), IFP1.4 (mammalian-optimized form^35), IFP2.0 (mammalian-optimized form^46), and iRFP713 (mammalian-optimized form^36) were PCR amplified using Phusion High-Fidelity DNA Polymerase (NEB) with primers containing 5′ HindIII and 3′ XhoI restriction enzyme sites. HindIII-HF and XhoI (NEB)-digested PCR fragments were gel purified (Zymoclean Gel DNA Recovery Kit) and were ligated (T4 DNA Ligase, Life Technologies) into a similarly digested pCDNA3-IRES-eGFP vector (bicistronic to express two FPs in the same cell). For creation of HO-1-expressing mammalian vec-tors, the Synechocystis HO-1 was used, and the codons were not optimized for mammalian expression. Synechocystis HO-1 was directly amplified from the pBAD vector using primers containing 5′ BsiWI and 3′ XbaI restriction enzyme sites. pCDNA3 smURFP, TDsmURFP, IFP1.4, IFP2.0, or iRFP713-IRES-eGFP vectors were digested with BsiWI and XbaI (NEB), dephosphorylated (SAP, Roche), gel purified (Zymoclean Gel DNA Recovery Kit), and ligated (T4 DNA Ligase, Life Technologies) with similarly digested, purified HO-1 PCR fragment. For creation of smURFP fusions, smURFP was PCR amplified using Phusion High-Fidelity DNA Polymerase (NEB) with primers containing 5′ AgeI and 3′ NotI restriction enzyme sites for N-terminal fusions or with primers containing 5′ AgeI and 3′ BspEI restriction enzyme sites for C-terminal fusions. mGeos2-VEL-ManII-N-10 (Addgene 57551) and Dronpa-PDHA1-N-10 (Addgene 57292) vectors were digested with AgeI and NotI (NEB) and mCherry-αTubulin-C-18 (Addgene 55148) and tdTomato-LaminB1-10 (Addgene 58107) were digested with AgeI and BspEI, dephosphorylated (SAP, Roche), gel purified (Zymoclean Gel DNA Recovery Kit), and ligated (T4 DNA Ligase, Life Technologies) with similarly digested, purified smURFP PCR fragment. HEK293A (Invitrogen, Life Technologies), HT1080 (ATCC), and PC3 (ATCC) cells were grown in Dulbecco's Modified Eagle's medium (DMEM, Corning), supplemented with 10% FBS (Atlanta Biologicals)+1×penicillin—streptomycin (Fisher Scientific), which is referred to as growth media, on poly-D-lysine-coated glass-bottom culture dishes (MatTek, No. P35G-0-14-C). The HEK cell line is listed in the ICLAC and NCBI biosample databases and is commonly misidentified as the HeLa cell line. For expression of exogenous fluorescent proteins, there is no problem if there is a contaminating cell line because no endogenous biology or therapeutic results are being determined. HEK293A cells were purchased from Invitrogen (Life Technologies), and all experiments are derived from the same expanded frozen stock without cell line authentication or mycoplasma detection. Cells were transfected using 2 μg of circular DNA+5 μl Lipofectamine 2000 (Life Technologies) in 2 ml Opti-MEM (Life Technologies) for 4-5 h, transfection media was discarded, and prewarmed growth media was added. Chromophores (5 mM in DMSO) were added at indicated concentrations to growth media, warmed for 10-15 min at 37° C., and added to cells. For multiple timepoints, incubations were staggered to maintain equivalent incubation. Prior to imaging, cells were washed 1×2 ml growth media, 2×2 ml imaging solution, and imaged in 2 ml imaging solution. Fluorescence imaging was performed on a Zeiss Axiovert 200M inverted microscope controlled by SlideBook software. FPs were imaged with the following settings: eGFP, EX/EM=495(10)/535(25) nm, tdTomato EX/EM=540(25)/595(50) nm; mCherry and mCardinal, EX/EM=580(20)/653(95) nm; smURFP and TDsmURFP, EX/EX=628(40)/680(30) nm; and IFP1.4, IFP2.0, and iRFP713, EX/EM=665(45)/725(50) nm. […]

quantum yield (QY) [1]: 0.013%
Compound: C=CC1=C(C)/C(=C/C2=NC(=C\c3[nH]c(/C=C4\NC(=O)C(C)=C4C=C)c(C)c3CCC(=O)O)/C(CCC(=O)O)=C2C)NC1=O [BV, biliverdin, reference compound]
stability in plasma in vitro [2]: slower degradation; also recorded: significantly degraded | fluorescence with 25 μM BV at pH 6.4 relative to BV at pH 7.5 (HEK293A cells; 3.5 h): increased fluorescence three-fold | fluorescence with protonated BV (pH 6.4) relative to BVMe2 (HEK293A cells; pH 6.4): five-fold less
